How the values were obtained:
Assay type in all cases: functional
LOX IMVI = experiment: Growth inhibition of human LOXIMVI cells assessed as cell growth at 0.01 uM incubated for 48 hrs by sulforhodamine B assay relative to control; details: read-out: Activity
SF-295 [1] = experiment: Growth inhibition of human SF295 cells incubated for 48 hrs by sulforhodamine B assay; details: SF-295, 48 h
MDA-MB-468 [2] = experiment: Growth inhibition of human MDA-MB-468 cells incubated for 48 hrs by sulforhodamine B assay; details: MDA-MB-468, 48 h
MDA-MB-468 [3] = experiment: Growth inhibition of human MDA-MB-468 cells assessed as cell growth at 0.01 uM incubated for 48 hrs by sulforhodamine B assay relative to control; details: MDA-MB-468, 48 h, read-out: Activity
T47D = experiment: Growth inhibition of human T47D cells assessed as cell growth at 1 uM incubated for 48 hrs by sulforhodamine B assay relative to control; details: read-out: Activity
MCF7 = experiment: Growth inhibition of human MCF7 cells assessed as cell growth at 0.01 uM incubated for 48 hrs by sulforhodamine B assay relative to control; details: MCF7, 48 h, read-out: Activity
MDA-MB-231 = experiment: Growth inhibition of human MDA-MB-231 cells assessed as cell growth at 100 uM incubated for 48 hrs by sulforhodamine B assay relative to control; details: MDA-MB-231, 48 h, read-out: Activity
HOP-92 [4] = experiment: Growth inhibition of human HOP92 cells assessed as cell growth at 100 uM incubated for 48 hrs by sulforhodamine B assay relative to control; details: HOP-92, 48 h, read-out: Activity
U-251 = experiment: Growth inhibition of human U251 cells incubated for 48 hrs by sulforhodamine B assay; details: U-251, 48 h
PC-3 = experiment: Growth inhibition of human PC3 cells assessed as cell growth at 0.1 uM incubated for 48 hrs by sulforhodamine B assay relative to control; details: PC-3, 48 h, read-out: Activity
HT-29 = experiment: Growth inhibition of human HT-29 cells assessed as cell growth at 0.01 uM incubated for 48 hrs by sulforhodamine B assay relative to control; details: HT-29, 48 h, read-out: Activity
SF-295 [5] = experiment: Growth inhibition of human SF295 cells assessed as cell growth at 0.1 uM incubated for 48 hrs by sulforhodamine B assay relative to control; details: SF-295, 48 h, read-out: Activity
SK-MEL-28 = experiment: Growth inhibition of human SK-MEL-28 cells assessed as cell growth at 0.1 uM incubated for 48 hrs by sulforhodamine B assay relative to control; details: SK-MEL-28, 48 h, read-out: Activity
IGROV-1 [6] = experiment: Growth inhibition of human IGROV1 cells assessed as cell growth at 100 uM incubated for 48 hrs by sulforhodamine B assay relative to control; details: IGROV-1, 48 h, read-out: Activity
SNB-75 = experiment: Growth inhibition of human SNB75 cells assessed as cell growth at 1 uM incubated for 48 hrs by sulforhodamine B assay relative to control; details: SNB-75, 48 h, read-out: Activity
OVCAR-3 = experiment: Growth inhibition of human OVCAR3 cells assessed as cell growth at 0.01 uM incubated for 48 hrs by sulforhodamine B assay relative to control; details: OVCAR-3, 48 h, read-out: Activity
SK-MEL-5 = experiment: Growth inhibition of human SK-MEL-5 cells assessed as cell growth at 1 uM incubated for 48 hrs by sulforhodamine B assay relative to control; details: SK-MEL-5, 48 h, read-out: Activity
HL-60(TB) = experiment: Growth inhibition of human HL-60(TB) cells assessed as cell growth at 0.1 uM incubated for 48 hrs by sulforhodamine B assay relative to control; details: HL-60, 48 h, read-out: Activity
CCRF-CEM = experiment: Growth inhibition of human CCRF-CEM cells assessed as cell growth at 1 uM incubated for 48 hrs by sulforhodamine B assay relative to control; details: read-out: Activity
A549 = experiment: Growth inhibition of human A549/ATCC cells assessed as cell growth at 100 uM incubated for 48 hrs by sulforhodamine B assay relative to control; details: A549, 48 h, read-out: Activity
NCI-H522 = experiment: Growth inhibition of human NCI-H522 cells assessed as cell growth at 100 uM incubated for 48 hrs by sulforhodamine B assay relative to control; details: NCI-H522, 48 h, read-out: Activity
IGROV-1 [7] = experiment: Growth inhibition of human IGROV1 cells assessed as cell growth at 0.01 uM incubated for 48 hrs by sulforhodamine B assay relative to control; details: IGROV-1, 48 h, read-out: Activity
NCI-H226 [8] = experiment: Growth inhibition of human NCI-H226 cells incubated for 48 hrs by sulforhodamine B assay; details: NCI-H226, 48 h
NCI-H226 [9] = experiment: Growth inhibition of human NCI-H226 cells assessed as cell growth at 100 uM incubated for 48 hrs by sulforhodamine B assay relative to control; details: NCI-H226, 48 h, read-out: Activity
Hs-578T = experiment: Growth inhibition of human Hs 578T cells assessed as cell growth at 0.01 uM incubated for 48 hrs by sulforhodamine B assay relative to control; details: read-out: Activity
UO-31 = experiment: Growth inhibition of human UO31 cells assessed as cell growth at 1 uM incubated for 48 hrs by sulforhodamine B assay relative to control; details: UO-31, 48 h, read-out: Activity
SR [10] = experiment: Growth inhibition of human SR cells incubated for 48 hrs by sulforhodamine B assay
SR [11] = experiment: Growth inhibition of human SR cells assessed as cell growth at 1 uM incubated for 48 hrs by sulforhodamine B assay relative to control; details: read-out: Activity
COLO 205 = experiment: Growth inhibition of human COLO205 cells assessed as cell growth at 100 uM incubated for 48 hrs by sulforhodamine B assay relative to control; details: COLO 205, 48 h, read-out: Activity
HOP-92 [12] = experiment: Growth inhibition of human HOP92 cells incubated for 48 hrs by sulforhodamine B assay; details: HOP-92, 48 h
[13] = read-out: LC50 (the source's name)
[14] = read-out: pLC50 (the source's name) (converted)

Structure (SMILES): c1ccc2[nH]c(-c3ccc(-c4nccc5c4[nH]c4ccccc45)cc3)nc2c1
- growth at 0.01 µM (LOX IMVI): 93%
- GI50 (SF-295 [1]; read-out: GI50): 1.92 µM
- LC50 (SF-295 [1]; read-out: LC50): 8.34 µM
- TGI (SF-295 [1]; read-out: TGI): 4 µM
- GI50 (SF-295 [1]; read-out: pGI50 (converted)): 1.91 µM
- LC50 (SF-295 [1]; read-out: pLC50 (converted)): 8.32 µM
- TGI (SF-295 [1]; read-out: pTGI (converted)): 3.98 µM
- GI50 (MDA-MB-468 [2]; read-out: GI50): 2.52 µM
- CC50 (MDA-MB-468 [2]; [13]): 4.97 µM
- TGI (MDA-MB-468 [2]; read-out: TGI): 6.62 µM
- GI50 (MDA-MB-468 [2]; read-out: pGI50 (converted)): 2.51 µM
- CC50 (MDA-MB-468 [2]; [14]): 50.1 µM
- TGI (MDA-MB-468 [2]; read-out: pTGI (converted)): 6.61 µM
- growth at 0.01 µM (MDA-MB-468 [3]): 90%
- growth at 1 µM (T47D): 82%
- growth at 0.01 µM (MCF7): 91%
- growth at 100 µM (MDA-MB-231): 54%
- growth at 100 µM (HOP-92 [4]): 76%
- GI50 (U-251; read-out: GI50): 2.74 µM
- LC50 (U-251; read-out: LC50): 4.05 µM
- TGI (U-251; read-out: TGI): 7.83 µM
- GI50 (U-251; read-out: pGI50 (converted)): 2.75 µM
- LC50 (U-251; read-out: pLC50 (converted)): 40.7 µM
- TGI (U-251; read-out: pTGI (converted)): 7.76 µM
- growth at 0.1 µM (PC-3): 100%
- growth at 0.01 µM (HT-29): 100%
- growth at 0.1 µM (SF-295 [5]): 97%
- growth at 0.1 µM (SK-MEL-28): 98%
- growth at 100 µM (IGROV-1 [6]): 47%
- growth at 1 µM (SNB-75): 74%
- growth at 0.01 µM (OVCAR-3): 101%
- growth at 1 µM (SK-MEL-5): 94%
- growth at 0.1 µM (HL-60(TB)): 92%
- growth at 1 µM (CCRF-CEM): 103%
- growth at 100 µM (A549): 58%
- growth at 100 µM (NCI-H522): 46%
- growth at 0.01 µM (IGROV-1 [7]): 99%
- GI50 (NCI-H226 [8]; read-out: GI50): 2.27 µM
- CC50 (NCI-H226 [8]; [13]): 9.73 µM
- TGI (NCI-H226 [8]; read-out: TGI): 5.56 µM
- GI50 (NCI-H226 [8]; read-out: pGI50 (converted)): 2.29 µM
- CC50 (NCI-H226 [8]; [14]): 97.7 µM
- TGI (NCI-H226 [8]; read-out: pTGI (converted)): 5.5 µM
- growth at 100 µM (NCI-H226 [9]): 50%
- growth at 0.01 µM (Hs-578T): 99%
- growth at 1 µM (UO-31): 90%
- GI50 (SR [10]; read-out: GI50): 2.21 µM
- CC50 (SR [10]; [13]): > 1 µM
- TGI (SR [10]; read-out: TGI): 6.36 µM
- GI50 (SR [10]; read-out: pGI50 (converted)): 2.19 µM
- CC50 (SR [10]; [14]): > 100 µM
- TGI (SR [10]; read-out: pTGI (converted)): 6.31 µM
- growth at 1 µM (SR [11]): 88%
- growth at 100 µM (COLO 205): 65%
- GI50 (HOP-92 [12]; read-out: GI50): 2.06 µM
- CC50 (HOP-92 [12]; [13]): 2.98 µM
- TGI (HOP-92 [12]; read-out: TGI): 5.79 µM
- GI50 (HOP-92 [12]; read-out: pGI50 (converted)): 2.04 µM
- CC50 (HOP-92 [12]; [14]): 29.5 µM
- TGI (HOP-92 [12]; read-out: pTGI (converted)): 5.75 µM

— ChEMBL document CHEMBL4004838, “Design and synthesis of novel phenyl -1, 4-beta-carboline-hybrid molecules as potential anticancer agents” (Eur J Med Chem, 2017)
